Results as given in the NIST ThermoML archive (doi:10.1016/j.fluid.2018.11.010).

Test: wn = mass fraction of the nth substance listed
Settings: 298.15 K, Wilhelmy plate method

CC(=O)[O-].CCCCCCn1cc[n+](C)c1 [3-hexyl-1-methylimidazolium acetate] + O gave a surface tension liquid-gas (w1 = 7e-05) of 66.55 mN/m, a surface tension liquid-gas (w1 = 0.00069) of 60.77 mN/m and a surface tension liquid-gas (w1 = 0.01013) of 51.97 mN/m. For the same compound, the surface tension liquid-gas (w1 = 0.3005) was 41 mN/m and the surface tension liquid-gas (w1 = 1) was 36 mN/m.
